# Measured values from patent US10787413B2, “Derivatives of curcuminoids and use thereof as an anticancer agent” (CHINA MEDICAL UNIVERSITY, priority 2016, dated 2020).
# Like-named read-outs stand apart in the source and are kept apart here.
# How the values were obtained:
# [1] = Stability of 21a in the culture media; format: physicochemical; conditions: media after 72 h treatment analyzed for curcumin
# Protocol: Besides, the stability of 21a in the culture media was tested.
# [2] = tested on: MDA-MB-453; experiment: Cell viability, MDA-MB-453 breast cancer cells; format: cell-based; conditions: Homo sapiens; MDA-MB-453 (Her-2+), treated for 24 h
# Protocol: (§1) Cell viability was evaluated by measuring the reduction in MTT to yield blue formazan. Cells were cultured in 96-well plates, allowed to attach overnight, and then treated with compounds. After treatment, MTT solution (1 mg/ml) was added to each well, and plates were incubated for another 4 h. Medium were removed, blue formazan was dissolved in DMSO, and the absorbance was read at 570 nm^20.
# [3] = tested on: HCT-116 colon cancer cell; experiment: MTT cell viability assay, HCT-116 colon cancer cell; format: cell-based; conditions: Homo sapiens
# Protocol: as §1
# [4] = tested on: MDA-MB-231 breast cancer cell; experiment: MTT cell viability assay, MDA-MB-231 breast cancer cell; format: cell-based, human; conditions: for IC50: Homo sapiens
# Protocol: Cell viability was evaluated by measuring the reduction in MTT to yield blue formazan. Cells were cultured in 96-well plates, allowed to attach overnight, and then treated with compounds. After treatment, MTT solution (1 mg/ml) was added to each well, and plates were incubated for another 4 h.
smiles,measurement,setting,value
"COc1cc(/C=C/C(=O)/C=C(O)/C=C/c2ccc(OC(=O)C(C)(CO)CO)c(OC)c2)ccc1OC(=O)C(C)(CO)CO [Compound 21a, ((1E,3Z,6E)-3-Hydroxy-5-oxohepta-1,3,6-triene-1,7-diyl)bis(2-methoxy-4,1-phenylene) bis(3-hydroxy-2-(hydroxymethyl)-2-methylpropenoate)]",stability in the culture media,[1],stable
same,IC50,[2],3.97 ± 0.27 µM
same,IC50,"[3]; HCT-116, treated 24 hours, read-out: IC50 24 hours",10.5 ± 1.03 µM
same,IC50,"[3]; HCT-116, treated 48 hours, read-out: IC50 48 hours",6.25 ± 0.596 µM
same,IC50,"[3]; HCT-116, treated 72 hours, read-out: IC50 72 hours",3.91 ± 0.27 µM
same,viability of MDA-MB-231 cells,"[4]; 0, 1, 3, 5 and 10 μM, 24 h, concentration-dependent",significantly reduced
same,combination effect with Doxorubicin,"[4]; 21a in combination with Doxorubicin, MDA-MB-231 cells",Synergistic anticancer effect
same,IC50,"[4]; MDA-MB-231, treated 24 hours, read-out: IC50 24 hours",5.37 ± 1.22 µM
same,IC50,"[4]; MDA-MB-231, treated 48 hours, read-out: IC50 48 hours",3.06 ± 0.18 µM
same,IC50,"[4]; MDA-MB-231, treated 72 hours, read-out: IC50 72 hours",2.67 µM
same,times more potent than curcumin (IC50),"[4]; MDA-MB-231, 72 h treatment, curcumin IC50 16.23 μM",6.2 times
